Values quoted from earlier work as cited in paper PMC3971013 (Journal of natural products, 2013).
Non-standard residues stand in square brackets, D forms with d. Residues, ends and D or L forms follow the SMILES beside them. *: point of attachment. Octanoyl(2R-Me,7,8-dehydro) = C=CCCCC[C@@H](C)C(=O)*; Oct7ynoyl(2R-Me) = C#CCCCC[C@@H](C)C(=O)*; NMeF = CN[C@@H](Cc1ccccc1)C(=O)O; X4 = CC(=O)CCCC[C@@H](C)C(=O)*; Oct(7)enoyl = C=CCCCCCC(=O)*; Oct(7)ynoyl = C#CCCCCCC(=O)*; NMeV = CN[C@H](C(=O)O)C(C)C; Hept6ynoyl = C#CCCCCC(=O)*; NMeA = CN[C@@H](C)C(=O)O; X3 = C=CCCCCC(=O)*

Test system: Vero Cells
Settings: not given

Row | SMILES | LD50 Vero Cells [µM]
1 | C=CCCCCC(=O)N(C)[C@H](C(=O)N(C)[C@H](C(=O)N(C)[C@H](C(=O)N(C)[C@@H](C)C(=O)N(C)[C@@H](Cc1ccccc1)C(=O)OC)C(C)C)C(C)C)C(C)C [Compound 19] (X3-[NMeV][NMeV][NMeV][NMeA][NMeF]-OMe) | 24.7
2 | C=CCCCCCC(=O)N(C)[C@H](C(=O)N(C)[C@H](C(=O)N(C)[C@H](C(=O)N(C)[C@@H](C)C(=O)N(C)[C@@H](Cc1ccccc1)C(=O)N(C)C)C(C)C)C(C)C)C(C)C [Compound 13] ({Oct(7)enoyl}-[NMeV][NMeV][NMeV][NMeA][NMeF]-NMe2) | 23.8
3 | C=CCCCC[C@@H](C)C(=O)N(C)[C@H](C(=O)N(C)[C@H](C(=O)N[C@H](C(=O)N(C)[C@@H](C)C(=O)N(C)[C@@H](Cc1ccccc1)C(N)=O)C(C)C)C(C)C)C(C)C [Almiramide C (9), Almiramide C] ({Octanoyl(2R-Me,7,8-dehydro)}-[NMeV][NMeV]V[NMeA][NMeF]-NH2) | 33.1
4 | C=CCCCCC(=O)N(C)[C@H](C(=O)N(C)[C@H](C(=O)N(C)[C@H](C(=O)N(C)[C@@H](C)C(=O)N(C)[C@@H](Cc1ccccc1)C(=O)N(C)C)C(C)C)C(C)C)C(C)C [Compound 11] (X3-[NMeV][NMeV][NMeV][NMeA][NMeF]-NMe2) | 93.1
5 | C=CCCCCC(=O)N(C)[C@H](C(=O)N(C)[C@H](C(=O)N(C)[C@H](C(=O)N(C)[C@@H](C)C(=O)N(C)[C@@H](Cc1ccccc1)C(=O)O)C(C)C)C(C)C)C(C)C [Compound 15] (X3-[NMeV][NMeV][NMeV][NMeA][NMeF]-OH) | >70.0
6 | C=CCCCCCC(=O)N(C)[C@H](C(=O)N(C)[C@H](C(=O)N(C)[C@H](C(=O)N(C)[C@@H](C)C(=O)N(C)[C@@H](Cc1ccccc1)C(=O)O)C(C)C)C(C)C)C(C)C [Compound 17] ({Oct(7)enoyl}-[NMeV][NMeV][NMeV][NMeA][NMeF]-OH) | 192.4
7 | C#CCCCCC(=O)N(C)[C@H](C(=O)N(C)[C@H](C(=O)N(C)[C@H](C(=O)N(C)[C@@H](C)C(=O)N(C)[C@@H](Cc1ccccc1)C(=O)N(C)C)C(C)C)C(C)C)C(C)C [Compound 10] (Hept6ynoyl-[NMeV][NMeV][NMeV][NMeA][NMeF]-NMe2) | 155.7
8 | C=CCCCCCC(=O)N(C)[C@H](C(=O)N(C)[C@H](C(=O)N(C)[C@H](C(=O)N(C)[C@@H](C)C(=O)N(C)[C@@H](Cc1ccccc1)C(=O)OC)C(C)C)C(C)C)C(C)C [Compound 21] ({Oct(7)enoyl}-[NMeV][NMeV][NMeV][NMeA][NMeF]-OMe) | 18.8

Same assay, conditions: previously reported LD50 values

Row | SMILES | LD50 Vero Cells [µM]
9 | C#CCCCCCC(=O)N(C)[C@H](C(=O)N(C)[C@H](C(=O)N(C)[C@H](C(=O)N(C)[C@@H](C)C(=O)N(C)[C@@H](Cc1ccccc1)C(=O)N(C)C)C(C)C)C(C)C)C(C)C [Compound 12] ({Oct(7)ynoyl}-[NMeV][NMeV][NMeV][NMeA][NMeF]-NMe2) | 159.4
10 | CC(=O)CCCC[C@@H](C)C(=O)N(C)[C@H](C(=O)N(C)[C@H](C(=O)N[C@H](C(=O)N(C)[C@@H](C)C(=O)N(C)[C@@H](Cc1ccccc1)C(N)=O)C(C)C)C(C)C)C(C)C [Almiramide A (7), Almiramide A] (X4-[NMeV][NMeV]V[NMeA][NMeF]-NH2) | 113.1
11 | C#CCCCCCC(=O)N(C)[C@H](C(=O)N(C)[C@H](C(=O)N(C)[C@H](C(=O)N(C)[C@@H](C)C(=O)N(C)[C@@H](Cc1ccccc1)C(=O)OC)C(C)C)C(C)C)C(C)C [Compound 20] ({Oct(7)ynoyl}-[NMeV][NMeV][NMeV][NMeA][NMeF]-OMe) | 27.0
12 | C#CCCCC[C@@H](C)C(=O)N(C)[C@H](C(=O)N(C)[C@H](C(=O)N[C@H](C(=O)N(C)[C@@H](C)C(=O)N(C)[C@@H](Cc1ccccc1)C(N)=O)C(C)C)C(C)C)C(C)C [Almiramide B (8), Almiramide B] ({Oct7ynoyl(2R-Me)}-[NMeV][NMeV]V[NMeA][NMeF]-NH2) | 52.3
13 | C#CCCCCCC(=O)N(C)[C@H](C(=O)N(C)[C@H](C(=O)N(C)[C@H](C(=O)N(C)[C@@H](C)C(=O)N(C)[C@@H](Cc1ccccc1)C(=O)O)C(C)C)C(C)C)C(C)C [Compound 16] ({Oct(7)ynoyl}-[NMeV][NMeV][NMeV][NMeA][NMeF]-OH) | >68.9
14 | C#CCCCCC(=O)N(C)[C@H](C(=O)N(C)[C@H](C(=O)N(C)[C@H](C(=O)N(C)[C@@H](C)C(=O)N(C)[C@@H](Cc1ccccc1)C(=O)O)C(C)C)C(C)C)C(C)C [Compound 14] (Hept6ynoyl-[NMeV][NMeV][NMeV][NMeA][NMeF]-OH) | 281.1
15 | C#CCCCCC(=O)N(C)[C@H](C(=O)N(C)[C@H](C(=O)N(C)[C@H](C(=O)N(C)[C@@H](C)C(=O)N(C)[C@@H](Cc1ccccc1)C(=O)OC)C(C)C)C(C)C)C(C)C [Compound 18] (Hept6ynoyl-[NMeV][NMeV][NMeV][NMeA][NMeF]-OMe) | 41.4
